These are literature values, as cited in patent US6458821B1, “N-substituted azabicycloheptane derivatives, production and use thereof” (Abbott Laboratories, priority 1998, dated 2002).

Data set [1] has as its target serotonin 2A receptor (Homo sapiens, UniProt P28223). Particulars: background statement on substance A.
Data set [2] concerns the target T1, dopamine D4 receptor (Homo sapiens, UniProt P21917).
T1 sequence (P21917 1-419): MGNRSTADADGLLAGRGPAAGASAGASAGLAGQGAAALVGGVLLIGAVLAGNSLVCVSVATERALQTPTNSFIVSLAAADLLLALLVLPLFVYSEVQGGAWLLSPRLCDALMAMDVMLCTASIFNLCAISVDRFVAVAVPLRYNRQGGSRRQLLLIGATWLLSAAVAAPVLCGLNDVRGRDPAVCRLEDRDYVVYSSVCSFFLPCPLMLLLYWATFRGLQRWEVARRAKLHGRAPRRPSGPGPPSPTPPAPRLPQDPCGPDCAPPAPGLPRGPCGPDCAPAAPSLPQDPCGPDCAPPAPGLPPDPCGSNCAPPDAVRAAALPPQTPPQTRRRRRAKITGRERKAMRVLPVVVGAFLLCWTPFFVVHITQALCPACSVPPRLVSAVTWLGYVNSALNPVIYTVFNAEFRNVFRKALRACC
The conditions noted are these: background statement on substance A.

The conditions of data set [3]: limits the dosage of substance A.
Data set [4] deals with D2 (Homo sapiens, UniProt P14416). The conditions noted are these: D4/5-HT2A versus D2; background statement.
Sequence of D2 (P14416 whole entry): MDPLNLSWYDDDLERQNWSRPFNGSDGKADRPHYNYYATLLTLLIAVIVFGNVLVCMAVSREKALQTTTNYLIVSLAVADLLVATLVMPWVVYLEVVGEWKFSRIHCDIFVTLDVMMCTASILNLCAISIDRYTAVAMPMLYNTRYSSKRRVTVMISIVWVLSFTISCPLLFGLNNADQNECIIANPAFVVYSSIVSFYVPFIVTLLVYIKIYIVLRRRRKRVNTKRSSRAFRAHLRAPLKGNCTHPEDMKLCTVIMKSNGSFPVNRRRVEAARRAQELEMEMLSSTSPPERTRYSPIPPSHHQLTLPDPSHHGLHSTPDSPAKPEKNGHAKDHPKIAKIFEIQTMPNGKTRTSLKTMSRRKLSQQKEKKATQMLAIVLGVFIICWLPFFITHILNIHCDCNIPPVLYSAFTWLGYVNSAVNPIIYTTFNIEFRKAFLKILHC

Sequence of serotonin 2A receptor (P28223 whole entry): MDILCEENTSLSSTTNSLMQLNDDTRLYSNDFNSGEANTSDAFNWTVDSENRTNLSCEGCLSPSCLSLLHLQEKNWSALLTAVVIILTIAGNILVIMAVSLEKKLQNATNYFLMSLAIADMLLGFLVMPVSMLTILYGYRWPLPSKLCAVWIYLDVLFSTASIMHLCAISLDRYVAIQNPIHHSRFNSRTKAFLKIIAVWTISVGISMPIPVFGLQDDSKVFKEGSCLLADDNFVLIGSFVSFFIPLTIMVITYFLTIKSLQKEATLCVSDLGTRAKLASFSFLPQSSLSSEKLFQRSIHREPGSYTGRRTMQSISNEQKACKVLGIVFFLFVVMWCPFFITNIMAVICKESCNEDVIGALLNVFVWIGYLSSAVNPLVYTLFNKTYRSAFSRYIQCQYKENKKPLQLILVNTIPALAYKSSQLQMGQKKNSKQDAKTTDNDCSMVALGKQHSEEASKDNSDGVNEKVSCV

On to `O=c1[nH]c2ccccc2c(=O)n1CCN1C[C@H]2C[C@H](c3ccc(F)cc3)[C@H]2C1` [substance A, (+)-(1S,5R,6S)-exo-3-[2-[6-(4-fluorophenyl)-3-azabicyclo[3.2.0]-heptan-3-yl]ethyl]-1H,3H-quinazoline-2,4-dione], for which the 5-HT2A affinity entry in data set [1] is on record as “high”. Further, the D4 affinity result in data set [2] was “high”. Besides, the “prolongations in the QT interval in the ECG” value in data set [3] is reported as “prolongations which occur in the QT interval”. Besides, the “selectivity versus D2” value in data set [4] is on record as “good selectivity”.
